One block for each compound: values may come before it. Active and inactive are the calls of the source. The calls are words filed in the database; no cut-off is given here.
What was measured:
Quadruplex DNA [1] = assay: Alkylating activity at 5'-FAM-labeled human telomeric G-quadruplex DNA in K+ buffer at 100 uM measured up to 72 hrs by PAGE analysis; assay type: functional
[2] = Alkylating activity at 5'-FAM-labeled T-T mismatched duplex DNA (unknown origin) in MES buffer at 100 uM measured up to 72 hrs by PAGE analysis; assay type: functional
Quadruplex DNA [3] = assay: Alkylating activity at 5'-FAM-labeled human telomeric G-quadruplex DNA at 100 uM in Na+ buffer measured up to 72 hrs by PAGE analysis; assay type: functional
dsDNA = assay: Alkylating activity at 5'-FAM-labeled T-A full-matched duplex DNA (unknown origin) in MES buffer at 100 uM measured up to 72 hrs by PAGE analysis; assay type: functional
[4] = Solubility of the compound in water; assay type: physicochemical; settings: buffer
Quadruplex DNA [5] = assay: Binding affinity to human telomeric G-quadruplex DNA in K+ buffer at 0.2 uM after 15 mins by spectrofluorometric method; assay type: nucleic-acid assay
[6] = Binding affinity to T-T mismatched duplex DNA (unknown origin) in MES buffer at 0.2 uM after 15 mins by spectrofluorometric method
Quadruplex DNA [7] = assay: Binding affinity to human telomeric G-quadruplex DNA in Na+ buffer at 0.2 uM after 15 mins by spectrofluorometric method; assay type: nucleic-acid assay
Quadruplex DNA [8] = assay: Alkylating activity at human telomeric G-quadruplex DNA in K+ buffer assessed as thermal stabilization by measuring change in melting temperature at 1.5 uM by circular dichroism spectral analysis; assay type: functional
Quadruplex DNA [9] = assay: Alkylating activity at 12T base of human telomeric G-quadruplex DNA in K+ buffer at 100 uM using 9-mer primer after 72 hrs by primer extension method; assay type: functional
Quadruplex DNA [10] = assay: Effect on conformation of human telomeric G-quadruplex DNA in K+ buffer by circular dichroism spectral analysis; assay type: nucleic-acid assay
Quadruplex DNA [11] = assay: Effect on conformation of human telomeric G-quadruplex DNA in Na+ buffer by circular dichroism spectral analysis; assay type: nucleic-acid assay
Quadruplex DNA [12] = assay: Alkylating activity at human telomeric G-quadruplex DNA in Na+ buffer assessed as thermal stabilization by measuring change in melting temperature at 1.5 uM by circular dichroism spectral analysis; assay type: functional
Quadruplex DNA [13] = assay: Alkylating activity at 13T base of human telomeric G-quadruplex DNA in K+ buffer at 100 uM using 9-mer primer after 72 hrs by primer extension method; assay type: functional
Quadruplex DNA [14] = assay: Alkylating activity at 14G base of human telomeric G-quadruplex DNA in K+ buffer at 100 uM using 9-mer primer after 72 hrs by primer extension method; assay type: functional
Quadruplex DNA [15] = assay: Alkylating activity at 18T base of human telomeric G-quadruplex DNA in K+ buffer at 100 uM using 9-mer primer after 72 hrs by primer extension method; assay type: functional
Quadruplex DNA [16] = assay: Alkylating activity at 19T base of human telomeric G-quadruplex DNA in K+ buffer at 100 uM using 9-mer primer after 72 hrs by primer extension method; assay type: functional
Quadruplex DNA [17] = assay: Alkylating activity at 12T base of human telomeric G-quadruplex DNA in Na+ buffer at 100 uM using 9-mer primer after 72 hrs by primer extension method; assay type: functional
Quadruplex DNA [18] = assay: Alkylating activity at 13T base of human telomeric G-quadruplex DNA in Na+ buffer at 100 uM using 9-mer primer after 72 hrs by primer extension method; assay type: functional
Quadruplex DNA [19] = assay: Alkylating activity at 14G base of human telomeric G-quadruplex DNA in Na+ buffer at 100 uM using 9-mer primer after 72 hrs by primer extension method; assay type: functional
Quadruplex DNA [20] = assay: Alkylating activity at 18T base of human telomeric G-quadruplex DNA in Na+ buffer at 100 uM using 9-mer primer after 72 hrs by primer extension method; assay type: functional
Quadruplex DNA [21] = assay: Alkylating activity at 19T base of human telomeric G-quadruplex DNA in Na+ buffer at 100 uM using 9-mer primer after 72 hrs by primer extension method; assay type: functional
Quadruplex DNA [22] = assay: Alkylating activity at 24T base of human telomeric G-quadruplex DNA in Na+ buffer at 100 uM using 9-mer primer after 72 hrs by primer extension method; assay type: functional
Quadruplex DNA [23] = assay: Alkylating activity at 25T base of human telomeric G-quadruplex DNA in Na+ buffer at 100 uM using 9-mer primer after 72 hrs by primer extension method; assay type: functional
Quadruplex DNA [24] = assay: Alkylating activity at T bases of human telomeric G-quadruplex DNA in K+ buffer at 100 uM using 11-mer primer after 72 hrs by primer extension method; assay type: functional
Quadruplex DNA [25] = assay: Alkylating activity at T bases of human telomeric G-quadruplex DNA in Na+ buffer at 100 uM using 11-mer primer after 72 hrs by primer extension method; assay type: functional
Quadruplex DNA [26] = assay: Alkylating activity at T base of human telomeric G-quadruplex DNA in K+ buffer assessed as thymidine-compound adduct formation at 100 uM using 9-mer primer after 72 hrs by alkaline phosphatase and phosphodiesterase-1 enzymatic hydrolysis assay based ESI-MS analysis; assay type: functional
Quadruplex DNA [27] = assay: Binding affinity to human telomeric G-quadruplex DNA in K+ buffer at 9.4 uM by UV-vis titration analysis; assay type: nucleic-acid assay
Quadruplex DNA [28] = assay: Binding affinity to human telomeric G-quadruplex DNA in Na+ buffer at 9.4 uM UV-vis titration analysis; assay type: nucleic-acid assay
[29] = Binding affinity to T-T mismatched duplex DNA (unknown origin) by isothermal calorimetric titration method

solubility [4]: Soluble
SMILES: C=Cc1nc(N)nc(NCCCCNc2c3ccccc3nc3c(C(=O)NCCCN(C)CCCNC(C)=O)cccc23)n1
Activity (Quadruplex DNA [1]): Active | Activity [2]: inactive | Activity (Quadruplex DNA [3]): Active | Activity (dsDNA): inactive

solubility [4]: Soluble
SMILES: C=Cc1nc(N)nc(NCCCCNc2c3ccccc3nc3c(C(=O)NCCCN(C)C)cccc23)n1
Activity (Quadruplex DNA [1]): Active | Activity [2]: inactive | Activity (Quadruplex DNA [3]): Active | Activity (dsDNA): inactive

Kd (Quadruplex DNA [5]): 0.44 µM | Kd [6]: 0.64 µM | Activity (Quadruplex DNA [7]): inactive
SMILES: CSCCc1nc(N)nc(NCCCCNc2c3ccccc3nc3c(C(=O)NCCCN(C)C)cccc23)n1

Activity (Quadruplex DNA [10]): inactive | Activity (Quadruplex DNA [11]): inactive | solubility [4]: Soluble | Activity (Quadruplex DNA [26]): Active
SMILES: C=Cc1nc(N)nc(NCCCCNc2c3ccc(Cl)cc3nc3ccc(OC)cc23)n1
ΔTm (Quadruplex DNA [8]): 12.7 °C | Activity (Quadruplex DNA [9]): Active | Activity (Quadruplex DNA [1]): Active | Activity [2]: Active | Activity (Quadruplex DNA [3]): Active | Activity (dsDNA): inactive | ΔTm (Quadruplex DNA [12]): 5.4 °C | Activity (Quadruplex DNA [13]): Active | Activity (Quadruplex DNA [14]): Active | Activity (Quadruplex DNA [15]): Active | Activity (Quadruplex DNA [16]): Active | Activity (Quadruplex DNA [17]): Active | Activity (Quadruplex DNA [18]): Active | Activity (Quadruplex DNA [19]): Active | Activity (Quadruplex DNA [20]): Active | Activity (Quadruplex DNA [21]): Active | Activity (Quadruplex DNA [22]): Active | Activity (Quadruplex DNA [23]): Active | Activity (Quadruplex DNA [24]): Active | Activity (Quadruplex DNA [25]): Active

Kd (Quadruplex DNA [27]): 1.94 µM | Kd (Quadruplex DNA [5]): 0.61 µM | Kd [6]: 1.29 µM | Activity (Quadruplex DNA [7]): inactive | Kd (Quadruplex DNA [28]): 2.21 µM
SMILES: COc1ccc2nc3cc(Cl)ccc3c(NCCCCNc3nc(N)nc(CCSC)n3)c2c1

Kd [29]: 0.51 µM
SMILES: COc1ccc2nc3cc(Cl)ccc3c(NCCCCNc3nc(N)nc(N)n3)c2c1

Source: ChEMBL document CHEMBL4118221, “Vinyldiaminotriazine-acridine conjugate as G-quadruplex alkylating agent” (Bioorg Med Chem, 2018)
